SMILES strings stand for the structures. pIC50: −log10 of the molar value.

Format in all cases: cell-based
Experiment [1] relates to AGS (human gastric cancer cell line, KRAS G12D mutation). In words: 3D cell proliferation inhibition (CellTiter-Glo), AGS. To be noted: 168 h, 3D culture, 100 nM compound, seven days, CTG. As for the experimental part: (§1) The Cell Titer-Glo (CTG) method was adopted. Compound was dissolved with DMSO to 10 mM, and then diluted by medium. The upper medium of cells was removed, washed once with DPBS, added 2 mL of trypsin, and placed at 37° C. for a while. After cells were detached from the petri dish, 5 mL fresh medium was added and the suspension cells were centrifuged at 1000 rpm for 5 minutes at room temperature. Resuspend the cells with 5 mL of fresh culture medium, and use Countess™ to count cells. 200 nL compounds were added to a ultra-low attachment 384-well plate, and 40 μL cells were added to each well. After seven days of culture at 37° C., 5% CO2, CTG was added and the signal was recorded using Envision. The Inhibition rate is calculated using the following formula: Inhibition %=(Ave_H-Sample)/(Ave_H-Ave_L)×100%. Ave_H represents the average reading value of DMSO well, Sample represents the average reading value of compound well, and Ave_L represents the average reading value of 10 μM positive control well. The log value of concentration was taken as the X-axis, and the percentage inhibition rate was taken as the Y-axis. The dose-effect curve was fitted with log(inhibitor) vs. response-Variable slope of the analysis software GraphPad Prism 5. The IC50 value or inhibitory rate of each compound on cell proliferation was obtained.
Background: Cellular ATP, detected with luciferase, serves as a proxy for viable cell number.

Experiment [2] relates to HPAC (human pancreatic cancer cell line, KRAS G12D mutation). Description: 3D cell proliferation inhibition (CellTiter-Glo), HPAC. Particulars: 168 h, 3D culture, seven days, CTG. The procedure:
as §1, with “Compound activity was indicated by AGS (human gastric cancer cell line, KRAS G12D mutation), GP2D (human colon cancer cell line, KRAS G12D mutation), HPAC (human pancreatic cancer cell line, KRAS G12D mutation) and AsPCl (human pancreatic cancer cell line, KRAS G12D mutation) 3D cell proliferation inhibition. The Cell” for “The Cell”

Experiment [3] concerns AsPC1 (human pancreatic cancer cell line, KRAS G12D mutation). Description: 3D cell proliferation inhibition (CellTiter-Glo), AsPC1. To be noted: ASPC1, 168 h, 3D culture, seven days, CTG. The procedure:
as §1, with “Compound activity was indicated by AGS (human gastric cancer cell line, KRAS G12D mutation), GP2D (human colon cancer cell line, KRAS G12D mutation), HPAC (human pancreatic cancer cell line, KRAS G12D mutation) and AsPCl (human pancreatic cancer cell line, KRAS G12D mutation) 3D cell proliferation inhibition. The Cell” for “The Cell”

The subject of experiment [4] is GP2D (human colon cancer cell line, KRAS G12D mutation). In words: 3D cell proliferation inhibition (CellTiter-Glo), GP2D. To be noted: 168 h, 3D culture, seven days, CTG. As for the experimental part: as §1, with “Compound activity was indicated by AGS (human gastric cancer cell line, KRAS G12D mutation), GP2D (human colon cancer cell line, KRAS G12D mutation), HPAC (human pancreatic cancer cell line, KRAS G12D mutation) and AsPCl (human pancreatic cancer cell line, KRAS G12D mutation) 3D cell proliferation inhibition. The Cell” for “The Cell”, “control well. […]” for “control well. The log value of concentration was taken as the X-axis, and the percentage inhibition rate was taken as the Y-axis. The dose-effect curve was fitted with log(inhibitor) vs. response-Variable slope of the analysis software GraphPad Prism 5. The IC50 value or inhibitory rate of each compound on cell proliferation was obtained.”

The term inhibition denotes the relative decrease from the control value, in per cent. Take `FC(F)=C1CN2CCCC2(COc2nc(N3CC4CCC(C3)N4)c3cnc(-c4cccc5cccc(F)c45)c(F)c3n2)C1` (centres unmarked) [Compound 13]: in experiment [1], the inhibition at 0.1 µM is above 50%.

As a reminder, the pIC50 is the IC50 on a negative log10 scale, so that one unit is a factor of ten. Low readings indicate a high IC50, high ones a low IC50. In experiment [2], `C#Cc1c(F)ccc2cc(O)cc(-c3ncc4c(N5CCNC6(CC6)C5)nc(OCC56CCCN5CC(=C(F)F)C6)nc4c3F)c12` (centres unmarked) [Compound 24] had a pIC50 above 7.15.

`C#Cc1c(F)ccc2cc(O)cc(-c3ncc4c(N5C6CCC5CNC6)nc(OC[C@@]56CCCN5C[C@H](F)C6)nc4c3F)c12` [Compound 21]: in experiment [3], the pIC50 is above 7.00.

The compound `C#Cc1c(F)ccc2cc(OP(=O)(O)O)cc(-c3ncc4c(N5CC6CCC(C5)N6)nc(OCC56CCCN5CC(=C(F)F)C6)nc4c3F)c12` (centres unmarked) [Compound 29] gave a pIC50 in experiment [2] above 8.00.

In experiment [2], `C#Cc1c(F)ccc2cc(O)cc(-c3c(Cl)cc4c(N5CC6CCC(C5)N6)nc(OCC56CCCN5CC(=C(F)F)C6)nc4c3F)c12` (centres unmarked) [Compound 30] gave a pIC50 above 7.60.

In turn, `Oc1cc(-c2ncc3c(N4CCNC5(CC5)C4)nc(OC[C@@]45CCCN4C[C@H](F)C5)nc3c2F)c2c(F)cccc2c1` [Compound 1] gave an inhibition at 0.1 µM in experiment [1] above 50%.

Regarding `Oc1cc(-c2ncc3c(N4CC5CCC(C4)N5)nc(OCC45CCCN4CC(=C(F)F)C5)nc3c2F)c2c(F)cccc2c1` (centres unmarked) [Compound 4], the negative logarithm of the IC50 (pIC50) in experiment [4] is above 9.30; in experiment [2], above 7.82. Moreover, the inhibition at 0.1 µM in experiment [1] is above 50%.

`C#Cc1c(F)ccc2cccc(-c3ncc4c(N5CC6CCC(C5)N6)nc(OCC56CCCN5CC(=C(F)F)C6)nc4c3F)c12` (centres unmarked) [Compound 12]: the pIC50 in experiment [2] is above 7.15. Besides, the inhibition at 0.1 µM in experiment [1] was above 50%.

In the case of `CCc1c(F)ccc2cccc(-c3ncc4c(N5CC6CCC(C5)N6)nc(OCC56CCCN5CC(=C(F)F)C6)nc4c3F)c12` (centres unmarked) [Compound 14], the inhibition at 0.1 µM in experiment [1] was above 50%.

Take `C#Cc1c(F)ccc2cc(O)cc(-c3ncc4c(N5CC6CCC(C5)N6)nc(OCC56CCCN5CC(=C(F)F)C6)nc4c3F)c12` (centres unmarked) [Compound 20]: the pIC50 in experiment [2] is above 8.30.

In experiment [2], `C#Cc1c(F)ccc2cc(OC(C)=O)cc(-c3ncc4c(N5CC6CCC(C5)N6)nc(OCC56CCCN5CC(=C(F)F)C6)nc4c3F)c12` (centres unmarked) [Compound 28] gave a pIC50 above 7.15.

Take `C#Cc1c(F)ccc2cc(O)cc(-c3ncc4c(N5C6CCC5CNC6)nc(OCC56CCCN5CC(=C(F)F)C6)nc4c3F)c12` (centres unmarked) [Compound 23]: the pIC50 in experiment [2] is above 7.30.

As to `C#Cc1c(F)ccc2cc(O)cc(-c3ncc4c(N5CCNC6(CC6)C5)nc(OC[C@@]56CCCN5C[C@H](F)C6)nc4c3F)c12` [Compound 22], in experiment [3], the pIC50 is above 6.82.

On to `C#Cc1cccc2cc(O)cc(-c3ncc4c(N5CC6CCC(C5)N6)nc(OCC56CCCN5CC(=C(F)F)C6)nc4c3F)c12` (centres unmarked) [Compound 10], for which the pIC50 in experiment [3] was above 8.30; in experiment [4], above 9.30; in experiment [2], above 8.00. The same compound registered an inhibition at 0.1 µM in experiment [1] above 50%.

Source of the values: patent US20250255868A1, “HETEROCYCLIC COMPOUND ACTING AS KRAS G12D INHIBITOR” (Hangzhou Innogate Pharma Co., Ltd., priority 2021, published 2025).
